Test results published in PMC4496498, “Radiosynthesis, In Vivo Biological Evaluation, and Imaging of Brain Lesions with [^123I]-CLINME, a New SPECT Tracer for the Translocator Protein” (Disease Markers, 2015).
Values joined by “and” are separate entries in the source; they are usually repeats but may differ in a detail not shown here. Identical values can stand only once.

Columns and labels:
TPSO [1] = conditions: cited from earlier work
TSPO [2] = target: T1, TSPO (Rattus norvegicus, UniProt P16257); conditions: competing drug 1 mg/Kg i.v. 5 min prior to tracer, rats, 30 min p.i.
Procedure: The saturation effect of [^123I]-CLINME uptake was studied in competition experiments by injecting CLINME (1 mg/Kg), 5 min prior to [^123I]-CLINME (0.7 MBq, 10 pmoles in 0.1 mL of 0.9% saline), via the tail vein, to 8–10-week-old male SD rats.
The drugs were dissolved in dimethyl sulfoxide/saline (1 : 5) and injected intravenously 5 min prior to [^123I]-CLINME. Groups of rats (n = 3-4) were sacrificed by CO2 administration followed by cervical fracture 30 min after administration of [^123I]-CLINME and peripheral organs (liver, spleen, lung, heart, kidney, and adrenals), blood, olfactory bulbs, and the remainder of the brain were removed. The radioactivity concentrations were calculated as described previously. Results were analysed by one-way analysis of variance (ANOVA) followed by Tukey's post hoc test for comparing the tissue radioactivity concentrations in the treated animals (n = 3-4) and in the controls (n = 6). The criterion for significance was P < 0.05.

TSPO [3] = target: T1, TSPO; experiment: In vitro autoradiography with [^125I]-CLINME on lesioned brain tissue; type: binding, SD rats; design: from tissue; host or cells: male Sprague-Dawley rats: peripheral organs and brain in vivo; AMPA-lesioned striatum; brain sections; conditions: autoradiography, 16 nM [^125I]-CLINME
TPSO [4] = conditions: cited from earlier work; remark: listed apart in the source
[5] = In vivo biodistribution of [^123I]-CLINME; design: species or system Sprague-Dawley (SD) rats; conditions: for Biodistribution, Adrenals / Biodistribution, Blood / Biodistribution, Heart / Biodistribution, Kidney / Biodistribution, Liver / Biodistribution, Lungs / Biodistribution, Olfactory bulbs / Biodistribution, Spleen / Biodistribution, Thyroid / Biodistribution, Brain: SD male rats, i.v.; for Biodistribution, Brain: remainder of the brain
Procedure: No carrier added [^123I]-CLINME (0.7 MBq, 10 pmoles) dissolved in 0.9% saline (0.1 mL) was administered to 8–10-week-old male Sprague-Dawley (SD) rats (n = 4–6) via tail vein injection in a volume of 0.1 mL. At 5, 15, and 30 min and 1, 3, and 6 h after injection (p.i.) of the [^123I]-CLINME, the rats were sacrificed by CO2 administration followed by cervical fracture. […] Samples of organs and tissues were weighed and the radioactivity was measured using an automated γ-counter. The percent of injected dose (%ID) was calculated by comparison to a diluted standard solution derived from the initial injected sample. Radioactivity concentrations were expressed as percent of injected dose per gram of wet tissue (% ID/g).

[6] = Metabolite studies (radio-TLC of tissue and plasma extracts); type: in vivo, SD rats; conditions: rats
Procedure: Groups of male SD rats were injected with [^123I]-CLINME (7.4 MBq in 0.1 mL of 0.9% saline) and sacrificed at 15, 60, and 180 min p.i. Adrenals, kidney, heart, and brain were quickly excised.
Tissue fractions (200 mg) were treated with acetonitrile (2 mL) and homogenised, and the mixture was centrifuged at 2,000 rpm. The supernatant was removed and the pellet was treated for a second time, as above and the combined supernatants concentrated to 50 μL. Plasma (0.2 mL) separated from blood was extracted with acetonitrile and concentrated. The concentrated extracts were applied onto silica gel C18 plates with a preconcentration zone (Merck, Darmstadt, Germany) and developed with ethyl acetate. The radioactivity distribution was measured using a static radiochromatogram analyser (Berthold Co.).

TSPO [7] = target: T1, TSPO; experiment: SPECT imaging of unilateral excitotoxic (AMPA) striatum lesion; type: in vivo, SD rats; design: from tissue; host or cells: male Sprague-Dawley rats: peripheral organs and brain in vivo; AMPA-lesioned striatum; brain sections; conditions: AMPA lesion rat model
Procedure: Lesioning was performed by stereotaxically injecting 7.5 nmol α-amino-3-hydroxy-5-methylisoxazole-4-propionic acid (AMPA) unilaterally into the striatum. Male SD rats (317 ± 56 g) were anaesthetised with inhaled isoflurane in O2 (5% induction, ~2% maintenance thereafter) and positioned in a stereotaxic frame (Stoelting Co., USA). A 1.5 cm incision was made in the scalp to reveal the skull surface and a burr hole was drilled over the injection site. […] Following the injection, the needle was left in situ for a further 5 min to allow the fluid to disperse. After the needle was withdrawn, the incision was sutured and cleansed. Animals were given a week to recover prior to imaging. Analgesia was provided by subcutaneous administration of 0.05 mg/Kg buprenorphine.
Two hours prior to [^123I]-CLINME administration, thyroid blocking was performed with an intraperitoneal injection of 2 mg/Kg potassium iodide. [^123I]-CLINME (74–148 MBq in 0.1 mL of 0.9% saline, S.A. > 80 GBq/μmol) was injected via the tail vein. […]
SPECT volumes were reconstructed with an Ordered Subset Expectation Maximisation iterative reconstruction algorithm using 3 iterations and 8 subsets. […] At each of the time points p.i., the ratio of the mean activity in the lesion VOI compared to the contralateral control VOI was determined. […]

CCCN(CCC)C(=O)Cc1c(-c2ccc(Cl)cc2)nc2ccc(Cl)cn12 [alpidem]
selectivity for the TPSO over the CBR (TPSO [1]): 20 fold

Ro 5-4864
reduction of uptake of [^123I]-CLINME in the blood (TSPO [2]): not significant | decrease of [^123I]-CLINME uptake in the heart (TSPO [2]; vs controls): 77% | decrease of [^123I]-CLINME uptake in the kidney (TSPO [2]; vs controls): 68% | decrease of [^123I]-CLINME uptake in the lungs (TSPO [2]; vs controls): 62% | decrease of [^123I]-CLINME uptake in the olfactory bulbs (TSPO [2]; vs controls): nonsignificant reduction | decrease of [^123I]-CLINME uptake in the remainder of the brain (TSPO [2]; vs controls): 23% | increase of [^123I]-CLINME concentration in the adrenals (TSPO [2]; vs controls): 73%

CCN(C)C(=O)Cc1c(-c2ccc([125I])cc2)nc2ccc(Cl)cn12 [[^125I]-CLINME]
radioligand binding in the lesioned striatum compared to the contralateral one (TSPO [3]): significantly increased

COc1ccc(OCC[18F])c(CN(C(C)=O)c2cc(F)ccc2Oc2ccccc2)c1 [[^18F]FE-DAA1106]
ratio of uptake olfactory bulbs versus rest of brain (TPSO [4]): 3.5

CCN(C)C(=O)Cc1c(-c2ccc([123I])cc2)nc2ccc(Cl)cn12 [[^123I]-CLINME]
Biodistribution, Adrenals ([5]; 5 min p.i.): 2.89 ± 0.48 %ID/g | Biodistribution, Blood ([5]; 5 min p.i.): 0.18 ± 0.02 %ID/g | Biodistribution, Heart ([5]; 5 min p.i.): 3.28 ± 0.30 %ID/g | Biodistribution, Kidney ([5]; 5 min p.i.): 1.82 ± 0.20 %ID/g | Biodistribution, Liver ([5]; 5 min p.i.): 0.70 ± 0.10 %ID/g | Biodistribution, Lungs ([5]; 5 min p.i.): 7.88 ± 0.62 %ID/g | Biodistribution, Olfactory bulbs ([5]; 5 min p.i.): 0.38 ± 0.03 %ID/g | Biodistribution, Spleen ([5]; 5 min p.i.): 2.00 ± 0.55 %ID/g | Biodistribution, Thyroid ([5]; 5 min p.i.): 4.62 ± 2.17 %ID/g | Biodistribution, Brain ([5]; 5 min p.i.): 0.20 ± 0.02 %ID/g | Biodistribution, Adrenals ([5]; 15 min p.i.): 4.71 ± 0.26 %ID/g | Biodistribution, Blood ([5]; 15 min p.i.): 0.09 ± 0.01 %ID/g | Biodistribution, Heart ([5]; 15 min p.i.): 3.53 ± 0.23 %ID/g | Biodistribution, Kidney ([5]; 15 min p.i.): 1.75 ± 0.07 %ID/g | Biodistribution, Liver ([5]; 15 min p.i.): 0.68 ± 0.07 %ID/g | Biodistribution, Lungs ([5]; 15 min p.i.): 3.53 ± 0.44 %ID/g | Biodistribution, Olfactory bulbs ([5]; 15 min p.i.): 0.28 ± 0.04 %ID/g | Biodistribution, Spleen ([5]; 15 min p.i.): 2.65 ± 0.40 %ID/g | Biodistribution, Thyroid ([5]; 15 min p.i.): 5.62 ± 1.24 %ID/g | Biodistribution, Brain ([5]; 15 min p.i.): 0.10 ± 0.01 %ID/g | Biodistribution, Adrenals ([5]; 30 min p.i.): 7.55 ± 1.38 %ID/g | Biodistribution, Blood ([5]; 30 min p.i.): 0.08 ± 0.01 %ID/g | Biodistribution, Heart ([5]; 30 min p.i.): 3.32 ± 0.31 %ID/g | Biodistribution, Kidney ([5]; 30 min p.i.): 1.78 ± 0.18 %ID/g | Biodistribution, Liver ([5]; 30 min p.i.): 0.51 ± 0.07 %ID/g | Biodistribution, Lungs ([5]; 30 min p.i.): 2.45 ± 0.30 %ID/g | Biodistribution, Olfactory bulbs ([5]; 30 min p.i.): 0.34 ± 0.01 %ID/g | Biodistribution, Spleen ([5]; 30 min p.i.): 2.21 ± 0.15 %ID/g | Biodistribution, Thyroid ([5]; 30 min p.i.): 7.37 ± 2.14 %ID/g | Biodistribution, Brain ([5]; 30 min p.i.): 0.08 ± 0.00 %ID/g | Biodistribution, Adrenals ([5]; 1 hour p.i.): 6.77 ± 0.54 %ID/g | Biodistribution, Blood ([5]; 1 hour p.i.): 0.06 ± 0.00 %ID/g | Biodistribution, Kidney ([5]; 1 hour p.i.): 1.16 ± 0.18 %ID/g | Biodistribution, Liver ([5]; 1 hour p.i.): 0.42 ± 0.07 %ID/g | Biodistribution, Lungs ([5]; 1 hour p.i.): 1.68 ± 0.10 %ID/g | Biodistribution, Olfactory bulbs ([5]; 1 hour p.i.): 0.26 ± 0.05 %ID/g | Biodistribution, Spleen ([5]; 1 hour p.i.): 1.76 ± 0.12 %ID/g | Biodistribution, Thyroid ([5]; 1 hour p.i.): 6.46 ± 2.26 %ID/g | Biodistribution, Brain ([5]; 1 hour p.i.): 0.06 ± 0.01 %ID/g | Biodistribution, Adrenals ([5]; 3 hours p.i.): 6.65 ± 0.56 %ID/g | Biodistribution, Blood ([5]; 3 hours p.i.): 0.04 ± 0.00 %ID/g | Biodistribution, Heart ([5]; 3 hours p.i.): 1.28 ± 0.13 %ID/g | Biodistribution, Kidney ([5]; 3 hours p.i.): 0.70 ± 0.05 %ID/g | Biodistribution, Liver ([5]; 3 hours p.i.): 0.23 ± 0.01 %ID/g | Biodistribution, Lungs ([5]; 3 hours p.i.): 0.95 ± 0.12 %ID/g | Biodistribution, Olfactory bulbs ([5]; 3 hours p.i.): 0.25 ± 0.01 %ID/g | Biodistribution, Spleen ([5]; 3 hours p.i.): 1.02 ± 0.14 %ID/g | Biodistribution, Thyroid ([5]; 3 hours p.i.): 3.41 ± 1.10 %ID/g | Biodistribution, Brain ([5]; 3 hours p.i.): 0.03 ± 0.00 %ID/g | Biodistribution, Adrenals ([5]; 6 hours p.i.): 8.34 ± 0.71 %ID/g | Biodistribution, Blood ([5]; 6 hours p.i.): 0.03 ± 0.00 %ID/g | Biodistribution, Heart ([5]; 6 hours p.i.): 0.72 ± 0.14 %ID/g | Biodistribution, Kidney ([5]; 6 hours p.i.): 0.51 ± 0.09 %ID/g | Biodistribution, Liver ([5]; 6 hours p.i.): 0.21 ± 0.05 %ID/g | Biodistribution, Lungs ([5]; 6 hours p.i.): 0.68 ± 0.08 %ID/g | Biodistribution, Olfactory bulbs ([5]; 6 hours p.i.): 0.17 ± 0.05 %ID/g | Biodistribution, Spleen ([5]; 6 hours p.i.): 0.67 ± 0.09 %ID/g | Biodistribution, Thyroid ([5]; 6 hours p.i.): 4.11 ± 1.15 %ID/g | Biodistribution, Brain ([5]; 6 hours p.i.): 0.02 ± 0.00 %ID/g | ratio of uptake olfactory bulbs to blood ([5]; rats): 6 | plateau of activity in the adrenals ([5]; rats, after 30 min to 6 h p.i.): ≈ 7.5 % ID/g | peak activity in heart ([5]; rats, at 5 or 15 min p.i.): 3.5 % ID/g | peak activity in kidney ([5]; rats, at 5 or 15 min p.i.): 1.8 % ID/g | peak activity in liver ([5]; rats, at 5 or 15 min p.i.): 0.7 % ID/g | peak activity in lung ([5]; rats, at 5 or 15 min p.i.): 7.9 % ID/g | peak activity in spleen ([5]; rats, at 5 or 15 min p.i.): 2.7 % ID/g | ratio of uptake olfactory bulbs versus remainder of the brain ([5]; rats, at 5 min): 2 | uptake in the thyroid ([5]; rats, at 3 h, constant till 6 h): 4% | activity in liver, spleen, kidney, heart, and lung ([5]; rats, at 6 h): less than 0.7 % ID/g | ratio of uptake olfactory bulbs versus remainder of the brain ([5]; rats, at 6 h): 8 | uptake in the thyroid ([5]; rats, increase from 5 min to 1 h): 4–7% | concentration in blood ([5]; rats, throughout the time of measurement): < 0.18 % ID/g | unchanged radiotracer in brain tissue [6]: more than 95% | unchanged tracer in extracted activity, plasma ([6]; 15 min p.i.): 15% | unchanged tracer in extracted activity, plasma ([6]; 1 h p.i.): 5% | unchanged tracer in extracted activity, plasma ([6]; 3 h p.i.): 2% | unchanged [^123I]-CLINME in extractable radioactivity, adrenals, kidney, and heart ([6]; constant over the three hours studied): more than 95% | mean ratio ± SD (ipsilateral : contralateral) striatum uptake, SPECT (TSPO [7]; 60 min p.i.): 2.2 and 2.18 ± 0.89 | mean ratio ± SD (ipsilateral : contralateral) striatum uptake, SPECT (TSPO [7]; 120 min p.i.): 1.86 ± 0.51
